Measurements as given in PubChem BioAssay (NCI).
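Five concentrations, 48 hours, 96-well plates. GI50 marks 50% less growth. The concentration for full growth arrest is given as TGI.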

Key:
Test in all cases: NCI tumour cell line growth inhibition, 48 h
786-0 renal = test system: 786-0 renal
A498 renal = test system: A498 renal
ACHN renal = test system: ACHN renal
CAKI-1 renal = test system: CAKI-1 renal
HOP-92 NSCLC = test system: HOP-92 NSCLC
OVCAR-8 ovarian = test system: OVCAR-8 ovarian
SR leukemia = test system: SR leukemia
MDA-MB-435 = test system: MDA-MB-435

Row | SMILES | GI50 (786-0 renal) | TGI (786-0 renal) | GI50 (A498 renal) | TGI (A498 renal) | GI50 (ACHN renal) | TGI (ACHN renal) | GI50 (CAKI-1 renal) | TGI (CAKI-1 renal) | GI50 (HOP-92 NSCLC) | TGI (HOP-92 NSCLC) | GI50 (OVCAR-8 ovarian) | TGI (OVCAR-8 ovarian) | GI50 (SR leukemia) | TGI (SR leukemia) | GI50 (MDA-MB-435) | TGI (MDA-MB-435)
1 | Cc1ccc(C(=O)N/N=C/c2cccc(Oc3ccccc3)c2)cn1 | 29.1 µM | > 100 µM | 9.99 µM | > 100 µM | 45.9 µM | > 100 µM | 4.41 µM | > 100 µM | 12.7 µM | > 100 µM | 15.8 µM | > 100 µM | 1.01 µM | 20.7 µM |  | 
2 | Cc1cc(N/N=C/c2nc(-c3ccccc3)oc2C)c2cc(Cl)ccc2n1 | 1.64 µM | 3.38 µM | 3.2 µM | 18.1 µM | 1.74 µM | 3.14 µM | 1.69 µM | 3.1 µM | 1.43 µM | 2.87 µM | 2.04 µM | 4.4 µM |  |  | 1.78 µM | 3.26 µM
3 | Cc1cc(S(=O)(=O)NC#N)c(S/C(=N\Nc2ccc([N+](=O)[O-])cc2)c2ccccc2)cc1Cl | 33.8 µM | > 100 µM |  |  | 18 µM | 41.5 µM | 21.1 µM | 45.8 µM | 10.7 µM | 32.7 µM | 16.8 µM | 42.8 µM |  |  | 32.7 µM | > 100 µM
4 | O=C(Nc1ccncc1)C(=O)c1cn(S(=O)(=O)c2ccccc2F)c2ccccc12 | 4.95 µM | 40.9 µM | 5.47 µM | 63.3 µM | 5.21 µM | > 70.9 µM | 2.43 µM | > 70.8 µM | 2.93 µM | 60.2 µM | 2.7 µM | 52.4 µM |  |  | 0.188 µM | 0.695 µM
5 | Nc1ncc(-c2ccc(C(F)(F)F)cc2)c(NC2CCCCCC2)n1 | 32.2 µM | > 100 µM | 13.4 µM | 79.3 µM | 33.8 µM | > 100 µM | 20.9 µM | > 100 µM |  |  | 32.5 µM | > 100 µM | 13.2 µM | 57.2 µM | 35 µM | > 100 µM
6 | Cc1nn2c(/C=C3/C(=O)Nc4ccccc43)c(-c3ccc(Cl)cc3)nc2s1 | 9.95 µM | 24.2 µM | > 50 µM | > 50 µM | 9.86 µM | 20 µM | 13.3 µM | > 50 µM |  |  | 31.9 µM | > 50 µM | 13.8 µM | > 50 µM | 39.5 µM | > 50 µM
7 | CCOC(=O)C#Cc1ccc(C#CC(=O)OCC)cc1 |  | > 27.9 µM |  | > 51.5 µM |  | > 21.3 µM |  | > 20.2 µM |  | > 31.7 µM |  | > 23.2 µM |  |  |  | 3.86 µM
8 | c1cncc(CNc2ccccc2-c2nnc(Nc3ccc4c(c3)OCCO4)o2)c1 | 0.366 µM | > 100 µM | 0.138 µM | 1.8 µM | 1.08 µM | > 100 µM | 0.215 µM | > 100 µM | 0.222 µM | 20 µM | 0.435 µM | > 100 µM | 0.0424 µM | > 36 µM |  | 
9 | CCS(=O)(=O)c1ccc(OC)c(Nc2nccc(N(C)c3ccc4c(C)[nH]nc4c3)n2)c1 | 5.79 µM | 18.4 µM | 1.18 µM | 6.58 µM | 5.95 µM | > 24.1 µM | 3.75 µM | 12.3 µM | 0.622 µM | 3.64 µM | 7.22 µM | > 22.2 µM |  |  | 5.34 µM | 13.5 µM
10 | COc1cc(-c2cc(-c3nc4ccccc4[nH]3)[nH]n2)cc(OC)c1OC | 3.66 µM | 15.5 µM | 1.51 µM | 27.1 µM | 2.77 µM | 14.2 µM | 2.24 µM | 14.4 µM |  |  | 2.35 µM | 7.74 µM | 3.32 µM | > 100 µM | 2.35 µM | 7.61 µM
11 | COc1ccc(C(=O)/C=C/c2cc(C(=O)c3cc(OC)c(OC)c(OC)c3)ccc2OC)cc1 | 7.71 µM | > 100 µM | 7.33 µM | > 100 µM | 3.19 µM | > 100 µM |  |  | 5.81 µM | 58.9 µM | 4.61 µM | > 100 µM |  |  |  | 
12 | NC1CCC[C@@H](O)[C@H]1O (stereo not given in full) |  | > 100 µM |  | > 100 µM |  | > 100 µM |  | > 100 µM |  |  |  | > 100 µM |  | > 100 µM |  | > 100 µM
13 | Cc1nc(NC(=S)Nc2ccc(F)cc2)sc1C(=O)NNC(=S)Nc1ccc(F)cc1 | 21.9 µM | 89.1 µM | 2.4 µM | 15.4 µM |  |  | 11.4 µM | 44.9 µM | 1.49 µM | 7.25 µM | 16 µM | > 100 µM |  |  | 7.34 µM | 55.2 µM
